Measured values reported in patent US11591323B2, “Muscarinic agonists as non-steroidal and non-opioid analgesics and methods of use thereof” (Barry University, priority 2019, dated 2023).

Target: T1, M4 muscarinic receptor (Homo sapiens, UniProt P08173)
T1 sequence (P08173 1-479): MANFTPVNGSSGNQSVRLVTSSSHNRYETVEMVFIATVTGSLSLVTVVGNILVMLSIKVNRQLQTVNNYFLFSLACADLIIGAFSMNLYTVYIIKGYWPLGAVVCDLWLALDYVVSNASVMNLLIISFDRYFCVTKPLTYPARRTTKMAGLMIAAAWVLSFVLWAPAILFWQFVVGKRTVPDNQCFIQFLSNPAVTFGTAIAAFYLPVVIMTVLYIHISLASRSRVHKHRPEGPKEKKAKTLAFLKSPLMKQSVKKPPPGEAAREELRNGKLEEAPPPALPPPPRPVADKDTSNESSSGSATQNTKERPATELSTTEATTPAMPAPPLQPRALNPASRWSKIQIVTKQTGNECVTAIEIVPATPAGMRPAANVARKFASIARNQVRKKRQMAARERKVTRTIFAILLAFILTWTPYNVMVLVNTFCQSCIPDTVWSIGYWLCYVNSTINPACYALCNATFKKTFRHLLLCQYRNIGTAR
Assay: accumulation of cAMP at PTX-treated CHO cells expressing M4
Type: cell-based
Parameters: host or cells: CHO cells, stably transfected
Details: forskolin-stimulated and basal, in words
Description: (§1) To exclude the possibility that activation of the non-preferential Gs pathway was obscured by activation of the preferential Gi/o pathway, accumulation of cAMP was measured in CHO cells expressing M2 or M4 receptors where Gi/o G-proteins were inactivated by pertussis toxin (PTX) treatment (FIG. 4).
Cell culture and membrane preparation: Chinese hamster ovary (CHO) cells stably transfected with the genes of individual human variants of muscarinic receptors were purchased from Missouri S&T cDNA Resource Center (Rolla, Mo., USA). Fresh primary cell culture of smooth muscle cells (SMC) from rat aorta prepared as previously described was kindly provided by Dr. Lucie Bačáková. Primary culture of SMCs was grown to confluency in 75 cm^2 flasks in Dulbecco's modified Eagle's medium supplemented with 10% fetal bovine serum. Up to 6-times, 2 million of cells were sub-cultured. […]
Measurements of the production of cAMP and inositol phosphates: Levels of second messengers cAMP and inositol phosphates were determined in radiochemical chromatography assays as described previously. […] Samples were applied to alumina columns (1.5 g of alumina per column), washed with 2 ml ammonium acetate (pH=7.0) and eluted from columns with 4 ml ammonium acetate and measured by liquid scintillation spectrometry. […] After separation of water and organic phases, 0.6 ml of water phase was applied to Dowex columns (1.5 g of Dowex per column), washed by 20 ml of 60 mM ammonium formate/5 mM sodium borate buffer and eluted from columns with 4 ml of 1M ammonium formate/0.1 formic acid buffer and measured by liquid scintillation spectrometry.
as §1, with “[…]” for “Gs”, “11). […]” for “4).”

| SMILES | change in accumulation of cAMP |
| --- | --- |
| C1=CCN(Cc2cccs2)CC1.Cl [Compound 6A, 1-[(thiophen-2-yl)methyl]-1,2,3,6-tetrahydropyridin-1-ium chloride] | did not change cAMP levels |
| C[N+](C)(C)CCOC(N)=O [carbachol, reference compound] | about two-fold increase |
| C[N+]1(Cc2cccs2)CC=CCC1.[I-] (stereo not drawn) [Compound 7A, 1-methyl-1-[(thiophen-2-yl)methyl]-1,2,3,6-tetrahydropyridin-1-ium iodide] | did not change cAMP levels |
